According to PubChem BioAssay (NCI):
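Test compounds were applied to cells in 96-well plates for 48 hours at 5 doses. GI50 is the concentration that inhibits growth by half. The concentration for full growth arrest is given as TGI.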

Experiments:
Test in all cases: NCI anticancer screen, dose series, 48 h
[1] = test system: CAKI-1 renal
[2] = test system: MALME-3M melanoma
[3] = test system: MCF7 breast
[4] = test system: MDA-MB-435
[5] = test system: NCI-H522 lung
[6] = test system: RPMI-8226 leukemia
[7] = test system: RXF 393 renal
[8] = test system: SF-268 CNS
[9] = test system: SF-539 CNS
[10] = test system: SK-OV-3 ovarian

| Structure (SMILES) | GI50 [1] [µM] | TGI [1] [µM] | GI50 [2] [µM] | TGI [2] [µM] | GI50 [3] [µM] | TGI [3] [µM] | GI50 [4] [µM] | TGI [4] [µM] | GI50 [5] [µM] | TGI [5] [µM] | GI50 [6] [µM] | TGI [6] [µM] | GI50 [7] [µM] | TGI [7] [µM] | GI50 [8] [µM] | TGI [8] [µM] | GI50 [9] [µM] | TGI [9] [µM] | GI50 [10] [µM] | TGI [10] [µM] |
| --- | --- | --- | --- | --- | --- | --- | --- | --- | --- | --- | --- | --- | --- | --- | --- | --- | --- | --- | --- | --- |
| c1ccc2c(c1)c(NCCCCN1CCCCC1)cc1c3ccccc3c(NCCCCN3CCCCC3)cc21 | 21 | 46.1 | 12.9 | 38.7 | 4.76 | 23.2 | 3.42 | 12.3 | 66.2 | > 100 | 3.85 | 74.5 | 15.7 | 38.2 | 14.1 | 32.1 | 16.5 | 37.5 | 18.3 | 48.1 |
| C[C@]12CC[C@H]3[C@@H](CCC4=CC(=O)CC[C@@H]43)[C@@H]1CC[C@@H]2OC(=O)CCc1ccccc1 | 12 | 26.2 | 17 | 34.4 | 15.3 | 31.1 | 24.5 | > 80.2 | 19.4 | 41.7 | 14.6 | 47 | 19.6 | 43.5 | 15.1 | 29.6 | 16.3 | 30.5 | 44.1 | > 100 |
| Cc1ccc(NC(=O)/C=C/c2ccccc2)c(C(N)=O)c1 | 6.78 | > 59.4 | 5.99 | > 100 | 3.15 | > 100 | 0.526 | 2.44 | 1.89 | 9.06 | 2.89 | > 100 | 2.67 | 8.16 | 7.19 | > 100 | 2.07 | 6.75 | 3.26 | 19.1 |
| COC(=O)Cn1c2c(c3c(O)cccc31)C(=O)c1ccccc1-2 | > 100 | > 100 | > 100 | > 100 | > 100 | > 100 | > 100 | > 100 | > 100 | > 100 | > 100 | > 100 | > 100 | > 100 | > 100 | > 100 | > 100 | > 100 | > 100 | > 100 |
| COC(=O)C(Cc1ccccc1)NC(=O)NC(=O)NC(=O)CI (stereo not given) | 2 | 4.08 | 1.55 | 3.34 | 4.2 | 28.5 | 3.38 | 13.8 | 1.61 | 3.38 | 2.69 | 7.71 | 7.75 | 20.2 | 14.1 | 30.4 | 11.8 | 24.9 | 15.8 | 29.4 |
| C/C(=N\Nc1ccc2ccccc2n1)c1ccccn1 | – | 0.59 | 0.0756 | 2.15 | 0.102 | 5.21 | 0.223 | 8.09 | – | 0.21 | 0.0897 | 2.89 | 0.229 | 5.86 | 0.0489 | 10.8 | 0.0768 | 0.487 | 0.132 | 13.6 |
| O=C1C(=O)c2c(nc3ccc(Cl)cn23)-c2ccccc21 | 0.477 | 1.04 | 0.171 | 0.368 | 0.167 | 0.356 | 0.183 | 0.35 | 0.668 | 2 | 0.35 | 2.88 | 0.564 | 5.61 | 0.307 | 1.18 | 0.189 | 0.358 | 1.71 | 3.31 |
| C[C@]12CCC3[C@@H](CC[C@@H]4c5nonc5CC[C@]34C)C1CCC(=O)N2 (stereo not given in full) | – | > 100 | – | > 100 | > 100 | > 100 | > 100 | > 100 | – | > 100 | – | > 100 | – | > 100 | – | > 100 | – | > 100 | – | > 100 |
| COc1cccc(NC(=O)c2sc3nc4c(cc3c2N)CN(Cc2ccccc2)CC4)c1 | 11.7 | > 100 | 1.43 | 16.6 | 0.62 | > 100 | 0.296 | 11 | 15.1 | > 100 | 38.9 | > 100 | 2.71 | 12.9 | 3.66 | 20.7 | 1.99 | 6.56 | 2.78 | 14 |
| C=CC(=O)Nc1cccc(C)c1Nc1cc(-c2cccnc2Cc2c(C)c(OC)cc(OC)c2C)ncn1 | 9.97 | > 100 | 17.8 | 49 | 5.27 | > 100 | 12.1 | 31.3 | 11.6 | 36.2 | 3.37 | 24.9 | 2.52 | 7.89 | 9.59 | 60.3 | 3.47 | 38.2 | 34.5 | > 100 |
